Measurements from patent US20230295115A1, “SUBSTITUTED ISOQUINOLINYLMETHYL AMIDES, ANALOGUES THEREOF, AND METHODS USING SAME” (priority 2020, published 2023).

test system: HBV rcDNA; experiment: HepDE19 assay with bDNA quantitation of HBV rcDNA; assay type: cell-based, hepatitis B virus (HBV); details: HepDE19 cells, 7 day incubation, rcDNA measured by Quantigene 2.0 bDNA assay, top concentration 25 μM; read-out: DE-19bDNA EC50
In short: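 HepDE19 cells were switched to tetracycline-free medium and exposed to compound (0.5% DMSO final) for 7 days at 37° C. rcDNA was then quantified by bDNA with an HBV-specific probe set. In parallel, viability was read as ATP content (CellTiter-Glo) after 4 days on replicate plates.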

SMILES | EC50 [µM]
CC(c1c[nH]c(=O)c2cc(F)c(F)cc12)N(C)C(=O)c1cc2cc(F)ccn2c1 (single isomer, unassigned) [Compound 109, N-(1-(6,7-Difluoro-1-oxo-1,2-dihydroisoquinolin-4-yl)ethyl)-7-fluoro-N-methylindolizine-2-carboxamide] | 3.2
CC(c1c[nH]c(=O)c2cc(F)c(F)cc12)N(C)C(=O)c1cc2ccc(Cl)cn2c1 (single isomer, unassigned) [Compound 110, 6-Chloro-N-(1-(6,7-difluoro-1-oxo-1,2-dihydroisoquinolin-4-yl)ethyl)-N-methylindolizine-2-carboxamide] | 0.04
CC(c1c[nH]c(=O)c2cc(F)c(F)cc12)N(C)C(=O)c1cc2ccc(Cl)cn2c1 (single isomer, unassigned) [Compound 111, 6-Chloro-N-(1-(6,7-difluoro-1-oxo-1,2-dihydroisoquinolin-4-yl)ethyl)-N-methylindolizine-2-carboxamide] | 1.4
CC(c1c[nH]c(=O)c2cc(F)c(F)cc12)N(C)C(=O)c1ccc(C(F)(F)F)c(F)c1 (single isomer, unassigned) [Compound 119, N-(1-(6,7-Difluoro-1-oxo-1,2-dihydroisoquinolin-4-yl)ethyl)-3-fluoro-N-methyl-4-(trifluoromethyl) benzamide] | 4.02
CC(c1c[nH]c(=O)c2cc(F)c(F)cc12)N(C)C(=O)c1ccc(C(F)(F)F)c(F)c1 (single isomer, unassigned) [Compound 120, N-(1-(6,7-Difluoro-1-oxo-1,2-dihydroisoquinolin-4-yl)ethyl)-3-fluoro-N-methyl-4-(trifluoromethyl) benzamide] | 0.02
CC(c1c[nH]c(=O)c2cc(F)c(F)cc12)N(C)C(=O)c1ccc(Cl)c(F)c1 (single isomer, unassigned) [Compound 121, 4-Chloro-N-(1-(6,7-difluoro-1-oxo-1,2-dihydroisoquinolin-4-yl)ethyl)-3-fluoro-N-methylbenzamide] | 5.68
CC(c1c[nH]c(=O)c2cc(F)c(F)cc12)N(C)C(=O)c1ccc(Cl)c(F)c1 (single isomer, unassigned) [Compound 122, 4-Chloro-N-(1-(6,7-difluoro-1-oxo-1,2-dihydroisoquinolin-4-yl)ethyl)-3-fluoro-N-methylbenzamide] | 0.04
CC(c1c[nH]c(=O)c2cc(F)c(F)cc12)N(C)C(=O)c1cc(F)c(F)c(F)c1 (single isomer, unassigned) [Compound 123, N-(1-(6,7-Difluoro-1-oxo-1,2-dihydroisoquinolin-4-yl)ethyl)-3,4,5-trifluoro-N-methylbenzamide] | 22.4
CC(c1c[nH]c(=O)c2cc(F)c(F)cc12)N(C)C(=O)c1cc(F)c(F)c(F)c1 (single isomer, unassigned) [Compound 124, N-(1-(6,7-Difluoro-1-oxo-1,2-dihydroisoquinolin-4-yl)ethyl)-3,4,5-trifluoro-N-methylbenzamide] | 0.19
CC(c1c[nH]c(=O)c2cc(F)c(F)cc12)N(C)C(=O)c1cccc(C(F)F)c1 (single isomer, unassigned) [Compound 125, N-(1-(6,7-Difluoro-1-oxo-1,2-dihydroisoquinolin-4-yl)ethyl)-3-(difluoromethyl)-N-methylbenzamide] | 24.8
CC(c1c[nH]c(=O)c2cc(F)c(F)cc12)N(C)C(=O)c1cccc(C(F)F)c1 (single isomer, unassigned) [Compound 126, N-(1-(6,7-Difluoro-1-oxo-1,2-dihydroisoquinolin-4-yl)ethyl)-3-(difluoromethyl)-N-methylbenzamide] | 0.1

same assay, conditions: read-out: DE-19bDNA EC50; HepDE19 cells, 7 day incubation, rcDNA measured by Quantigene 2.0 bDNA assay, top concentration 25 μM

SMILES | EC50 [µM]
CC(c1c[nH]c(=O)c2cc(F)c(F)cc12)N(C)C(=O)c1ccccc1 (single isomer, unassigned) [Compound 127, N-(1-(6,7-Difluoro-1-oxo-1,2-dihydroisoquinolin-4-yl)ethyl)-N-methylbenzamide] | 3.53
